Data on three substances can be found in publication PMC2911999 (Chemical biology & drug design, 2010).

In the experiment the target is rhodopsin (Bos taurus, UniProt P02699). Description: extra MII stabilization assay. It counts as biochemical.
Sequence of rhodopsin (P02699 whole entry): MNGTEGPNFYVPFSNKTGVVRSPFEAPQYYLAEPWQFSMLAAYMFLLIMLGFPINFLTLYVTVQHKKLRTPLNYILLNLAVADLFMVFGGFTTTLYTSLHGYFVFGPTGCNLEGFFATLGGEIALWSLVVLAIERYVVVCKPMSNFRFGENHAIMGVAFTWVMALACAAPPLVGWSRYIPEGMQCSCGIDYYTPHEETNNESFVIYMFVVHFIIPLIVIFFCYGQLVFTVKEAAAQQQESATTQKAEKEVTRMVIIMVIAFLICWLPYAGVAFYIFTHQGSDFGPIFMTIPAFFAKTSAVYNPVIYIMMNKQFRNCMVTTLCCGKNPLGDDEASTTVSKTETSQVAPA

AW 00987 [compound 5] gave an EC50 of 11.8 ± 6.7 mM. Then KM 05703 [compound 4], with 3 ± 0.28 mM; and RJC 01340 [compound 3], with 16.3 ± 12.3 mM.
